This note sets out measurements from patent US9572820B2, “Methods of treating autophagy-associated disorders and related pharmaceutical compositions, diagnostics, screening techniques and kits” (priority 2011, dated 2017).

Type in all cases: cell-based, murine
Assay [1] has as its system pro-IL-1β. Description: Expression of pro-IL-1β in BMMs. The note with it: cells treated with bafilomycin A1 or CA-074 Me. The method, then: To induce pro-IL-1β expression, cells were pretreated overnight with 100 ng/ml LPS (Sigma). Inflammasome was induced with […] nigericin (Sigma) for 1 h or with […] Alum (Thermoscientific) for 1 h or with […] silica crystals (MIN-U-SIL-15, US Silica) for 1 h or with […] Amyloid-b peptide (Ab; American Peptide Company) fibrils prepared as described (Moore et al, 2002). […] Starvation and other treatments (except for macrophage priming with LPS done in advance) were carried out concurrently (i.e., initiated at the same time).
For all conditions, cell-free supernatants were assayed by immunoblotting after TCA precipitation for mouse IL-1β p17 (R&D), caspase-1 p10 (Santa Cruz Biotechnology), HMGB1 (Abcam) and Cathepsin B (R&D) or by ELISA for mouse IL-1β (R&D), IL-18 (MBL), and HMGB1 (IBL). Immunofluorescence confocal microscopy was carried out using a Zeiss LSM 510 Meta microscope (laser wavelengths 488, 543, and 633 nm). Antibodies against endogenous proteins IL-1β (Abcam), Sec6 (Shu C Hsu, Rutgers University, NJ, USA), Cathepsin B (R&D), Rab8a (Abcam), GORASP1 (Novus), GORASP2 (ProteinTech Group), GM130 (BD), LC3 (MBL) and GFP (Abcam; for BMMs from GFP-LC3 knock-in transgenic mice) were used for indirect immunofluorescence analysis. […]

For assay [2], the system named is caspase 1 p20. Description: Caspase-1 accumulation in BMM by Western blot. The note with it: Atg5fl/fl LysM-Cre− BMM, EBSS. The protocol: (A) Confocal microcopy analysis of caspase-1 colocalization relative to LC3 in GFP-LC3 expressing BMM induced for autophagy by starvation (EBSS) in the presence of bafilomycin A1 for 90 minutes. Scale bar, 5 μM; Arrowheads and insets, LC3+ caspase-l+ positive profiles (colocalization). (B) Pearson's colocalization coefficient for caspase-1 vs. LC3 and IL-1α vs. LC3. (C) Caspase-1 accumulation in Atg5^fl/fl LysM-Cre− or Atg5^fl/fl LysM-Cre+ BMM induced for autophagy in EBSS with or without bafilomycin A1 (BafA1) and subjected to Western blot analysis. (D) IL-1α (culture supernatant ELISA) released from Atg5fl/fl LysM-Cre+ and Atg5fl/fl LysM-Cre− BMM incubated overnight with 100 ng/ml LPS and exposed for 1 h to inflammasome agonist silica (250 μg/ml) in EBSS. Data, means±SE, n≧3; **p<0.01 (t test).
Cells were washed with PBS and lysed with RIPA buffer containing protease inhibitor cocktail (Roche). Cells extracts were analyzed by standard immunoblotting techniques with antibodies to ASC (Enzo Life Science, AL177), procaspase-1 and active caspase-1 (P20) (Cell Signaling, 2225), GFP (Abeam), calpain I (Cell Signaling), p62 (Abeam) and actin (Sigma). Proteins were resolved on a 12% SDS-polyacrylamide gels and transferred to nitrocellulose membranes. The membrane was blocked for 1 h in 5% nonfat dried milk in PBS/Tween 20 (0.1%) and probed with primary antibody overnight at 4° C. […]

In assay [3] the test system is BMM. Description: Confocal quantification of cells positive for LC3 and IL-1α puncta. The note with it: Atg5+ BMM, LPS+IFN-γ, 90 min EBSS. The protocol:
(A,B) IL-1α (ELISA) released from LPS+IFN-γ stimulated Atg5^fl/fl LysM-Cre+ and Atg5^fl/fl LysM-Cre− BMM in the presence of 50 μg/ml rapamycin (Rap), 10 mM 3-MA, or 100 nM Bafilomycin A1 (Baf A1) after 12 h of stimulation. (C) IL-1α (ELISA) in culture supernatants of cells as in A, treated with calpain inhibitor, ALLN (100 μM). (D-F) Images and quantification of cells positive for LC3-only, IL-1α-only or LC3+IL-1α. Cells, wild type (Atg5+) BMM stimulated with LPS+IFN-γ and incubated for 90 min in EBSS in the absence (D, control) or presence (E, Baf A1) of bafilomycin A1. Cutoff for cells to be considered positive: >6 red or green puncta. Red arrowheads, IL-1α+ LC3− cells; green arrowheads, IL-1α− LC3+ cells; 10 μm.
For confocal microscopy, BMM were stained with mouse anti-GFP (Abeam, 10 μg/ml) to enhance LC3-GFP visualization, rabbit anti-caspase 1 (Santa Cruz Biotechnology), rabbit anti-calpain 1 (Cell Signaling Technology), or hamster anti-IL-1α (eBioscience) followed by secondary antibodies. Pearson's colocalization coefficients were derived using SLIDEBOOK 5.0 (Intelligent Imaging Innovations) applying the SLIDEBOOK 5 default algorithm command ‘AND’. All Pearson's coefficients were derived from three independent experiments with five fields or more per experiment, for a total of 15 fields contributing to the cumulative result.

Regarding `CO/C1=C\C(C)=C\[C@@H](C)[C@@H](O)[C@@H](C)C/C(C)=C/C=C/[C@H](OC)[C@@H]([C@@H](C)[C@@H](O)[C@H](C)[C@@]2(O)C[C@@H](O)[C@H](C)[C@@H](C(C)C)O2)OC1=O` [bafilomycin A1], the “expression of pro-IL-1β” value in assay [1] was “No differences”. The “levels of caspase 1 p20” value in assay [2] is recorded as “abnormally higher levels”. Moreover, in assay [3], the “number of cells positive for both IL-1α and LC3” value is given as “increased”.
